Where a name gives a salt, the structure may show the parent alone.
These compounds were tested on STAT6 (assay: Inhibitory test on STAT6 activation: IL-4-induced alkali phosphatase STAT6 reporter in 293 cells stably expressing the STAT6 gene and STAT6 reporter gene). Settings: HEK293; Table 1; 1 ng/ml human recombinant IL-4, 16 hours, 293 cells with STAT6 reporter; read-out: Inhibitory activity IC50 (concentration at which the alkali phosphatase activity induced by IL-4 was inhibited by 50%).
Assay type: cell-based
Summary of the method: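 HEK293 clone stably carrying STAT6 and a STAT6-element-driven alkaline phosphatase reporter, 5000 cells/well. Compound (DMSO ≤0.1%) plus 1 ng/ml human IL-4 for 16 hours. Supernatant heat-treated 65° C. 10 minutes, then alkaline phosphatase measured fluorometrically in carbonate buffer.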

Row | SMILES | IC50
1 | Cc1n[nH]cc1-c1ccc2nccc(N3CCC(Oc4ccc(S(C)(=O)=O)cc4)CC3)c2c1 [Example 239, 6-(3-Methyl-1H-4-pyrazolyl)-4-{4-[4-(methylsulfonyl)-phenoxy]piperidino}quinoline dihydrochloride] | < 10 nM
2 | Fc1ccc(-c2n[nH]cc2-c2ccc3ncc(-c4noc(C(F)F)n4)n3c2)c(F)c1 [Example 589, 6-[3-(2,4-Difluorophenyl)-1H-4-pyrazolyl]-3-(5-difluoromethyl-[1,2,4]oxadiazol-3-yl)-imidazo[1,2-a]-pyridine trihydrochloride] | < 10 nM
3 | CN1CCN(c2ccnc3ccc(-c4c[nH]nc4-c4ccc(F)cc4)cc23)CC1 [Example 203, 6-[3-(4-Fluorophenyl)-1H-4-pyrazolyl]-4-(4-methylpiperazin-1-yl)quinoline dihydrochloride] | 10 to 100 nM
4 | O=C1CCCN1Cc1nc(-c2cnc3ccc(-c4c[nH]nc4-c4ccccc4F)cn23)no1 [Example 596, 1-(3-{6-[3-(2-Fluorophenyl)-1H-4-pyrazolyl]-imidazo[1,2-a]-pyridin-3-yl}-[1,2,4]oxadiazol-5-ylmethyl)-pyrrolidin-2-one di-trifluoroacetate] | < 10 nM
5 | O=C(N1CCCC1)N1CCN(c2ccnc3ccc(-c4c[nH]nc4C(F)(F)F)cc23)CC1 [Example 224, Tetrahydro-1H-1-pyrrolyl{4-[6-(3-trifluoromethyl-1H-pyrazolyl)-4-quinolyl]piperazin-1-yl}methanone] | < 10 nM
6 | N#CCCCS(=O)(=O)c1ccc(-c2cnc3ccc(-c4c[nH]nc4-c4ccc(F)cc4)cn23)s1 [Example 626, 4-[(5-{6-[3-(4-Fluorophenyl)-1H-4-pyrazolyl]imidazo[1,2-a]pyridin-3-yl}-2-thienyl)sulfonyl]butane nitrile hydrochloride] | < 10 nM

Results, then the compound that gave them:

Row | IC50 | SMILES
7 | < 10 nM | Cc1csc(NC(=O)c2ccc(-c3cnc4ccc(-c5cn[nH]c5)cn34)cc2)n1 [Example 629, N1-(4-Methyl-1,3-thiazol-2-yl)-4-[6-(1H-4-pyrazolyl)-imidazo[1,2-a]pyridin-3-yl]benzamide dihydrochloride]
8 | < 10 nM | Cc1ccnc(NC(=O)c2ccc(-c3cnc4ccc(-c5cn[nH]c5)cn34)cc2F)c1 [Example 681, N1-(4-Methyl-2-pyridyl)-2-fluoro-4-[6-(1H-4-pyrazolyl)-imidazo[1,2-a]pyridin-3-yl]benzamide dihydrochloride]
9 | < 10 nM | Cc1n[nH]cc1-c1ccc2ncc(-c3ccc(C(=O)NN4CCCCC4)c(F)c3)n2c1 [Example 644, N1-Piperidino-2-fluoro-4-[6-(3-methyl-1H-4-pyrazolyl)-imidazo[1,2-a]pyridin-3-yl] benzamide dihydrochloride]
10 | < 10 nM | COc1ccc(-c2cnc3ccc(-c4c[nH]nc4-c4ccc(F)cc4)cn23)cc1F [Example 622, 3-(3-Fluoro-4-methoxyphenyl)-6-[3-(4-fluorophenyl)-1H-4-pyrazolyl]imidazo[1,2-a]pyridine hydrochloride]
11 | < 10 nM | O=C(c1ccc(-c2n[nH]cc2-c2ccc3ncc(-c4ccccn4)n3c2)cc1)N1CCOCC1 [Example 115, Morpholino(4-{4-[3-(2-pyridyl)imidazo[1,2-a]pyridin-6-yl]-1H-3-pyrazolyl}phenyl)methanone]
12 | < 10 nM | Cc1ccc(C(=O)C(C)(C)NC(=O)c2ccc(-c3cnc4ccc(-c5cn[nH]c5)cn34)cc2F)c(F)c1 [Example 674, hydrochloride]
13 | 10 to 100 nM | O=C(Nc1nc2ccc(OC(F)(F)F)cc2s1)c1ccc(-c2cnc3ccc(-c4cn[nH]c4)cn23)cc1F [Example 670, N1-[6-(Trifluoromethoxy)-1,3-benzothiazol-2-yl]-2-fluoro-4-[6-(1H-4-pyrazolyl)imidazo[1,2-a]pyridin-3-yl]benzamide dihydrochloride]

Same assay, conditions: HEK293; Table 2; 1 ng/ml human recombinant IL-4, 16 hours, 293 cells with STAT6 reporter; read-out: Inhibitory activity IC50 (concentration at which the alkali phosphatase activity induced by IL-4 was inhibited by 50%)

Row | SMILES | IC50
14 | CS(=O)(=O)c1ccc(-c2ncnc3ccc(-c4c[nH]nc4COc4ccc(F)cc4F)cc23)s1 [Example 905, 6-[3-(2,4-Difluorophenoxymethyl)-1H-pyrazol-4-yl]-4-(5-methylsulfonylthiophen-2-yl) quinazoline] | 100 to 1000 nM
15 | CS(=O)(=O)c1ccc(-c2ncnc3ccc(-c4c[nH]nc4-c4ccc(OC(F)(F)F)cc4)cc23)s1 [Example 892, 4-(5-Methylsulfonylthiophen-2-yl)-6-[3-(4-trifluoromethoxyphenyl)-1H-pyrazol-4-yl] quinazoline] | 10 to 100 nM
16 | N#Cc1cc(N2CCN(c3ncnc4ccc(-c5cn[nH]c5)cc34)CC2)ccc1F [Example 1007, 2-Fluoro-5-{4-[6-(1H-4-pyrazolyl)-4-quinazolinyl]piperazin-1-yl}benzonitrile hydrochloride] | 10 to 100 nM
17 | CS(=O)(=O)c1cc(F)cc(N2CCN(c3ncnc4ccc(-c5cn[nH]c5)cc34)CC2)c1 [Example 845, 4-[4-(3-Fluoro-5-methylsulfonylphenyl)piperazin-1-yl]-6-(1H-4-pyrazolyl)quinazoline dihydrochloride] | < 10 nM
18 | O=C(NC1CC1)c1ccc(-c2ncnc3ccc(-c4c[nH]nc4-c4ccc(F)cc4F)cc23)cc1F [Example 873, N-Cyclopropyl-4-{6-[3-(2,4-difluorophenyl)-1H-pyrazol-4-yl]quinazolin-4-yl}-2-fluorobenzamide dihydrochloride] | 100 to 1000 nM
19 | O=S(=O)(c1cccc(N2CCN(c3ncnc4ccc(-c5cn[nH]c5)cc34)CC2)c1)N1CCCCC1 [Example 955, 4-{4-[3-(Piperidine-1-sulfonyl)phenyl]piperazin-1-yl}-6-(1H-pyrazol-4-yl)quinazoline tri-trifluoroacetate] | < 10 nM
20 | O=S(=O)(c1ccc(-c2ncnc3ccc(-c4c[nH]nc4-c4ccc(F)cc4)cc23)s1)N1CCCC1 [Example 850, 6-[3-(4-Fluorophenyl)-1H-pyrazol-4-yl]-4-[5-(pyrrolidine-1-sulfonyl)thiophen-2-yl]quinazoline dihydrochloride] | 100 to 1000 nM
21 | CN(c1ccccc1)S(=O)(=O)c1ccc(-c2ncnc3ccc(-c4c[nH]nc4-c4ccc(F)cc4)cc23)s1 [Example 856, 5-{6-[3-(4-Fluorophenyl)-1H-pyrazol-4-yl]quinazolin-4-yl}-thiophen-2-sulfonic acid methylphenylamide dihydrochloride] | 100 to 1000 nM

Now from value to compound:

Row | IC50 | SMILES
22 | 10 to 100 nM | O=C(Nc1nccs1)c1ccc(-c2ncnc3ccc(-c4cn[nH]c4)cc23)cc1F [Example 872, 2-Fluoro-N-thiazol-2-yl-4-[6-(1H-pyrazol-4-yl)quinazolin-4-yl]benzamide trihydrochloride]
23 | < 10 nM | Cc1ccnc(NC(=O)c2ccc(-n3cnc4ccc(-c5cn[nH]c5)cc43)cc2F)c1 [Example 728, N1-(4-Methyl-2-pyridyl)-2-fluoro-4-[6-(1H-4-pyrazolyl)-1H-benzo[d]imidazol-1-yl]benzamide trihydrochloride]
24 | < 10 nM | Cc1cccc(N2CCN(c3ncnc4ccc(-c5cn[nH]c5)cc34)CC2)c1 [Example 934, 6-(1H-Pyrazol-4-yl)-4-(4-m-tolylpiperazin-1-yl)-quinazoline tri-trifluoroacetate]

Reference: patent US7074801B1, “Nitrogen-containing condensed cyclic compound having a pyrazolyl group as a substituent group and pharmaceutical composition thereof” (Eisai Co., Ltd., priority 2001, dated 2006)
